For assay [1], the target named is HIV-1 Rev protein RNA recognition element (RRE). Put plainly: Fluorescence anisotropy: displacement of fluorescein-labeled Rev peptide from the RRE in solution. The class given is binding. The conditions noted are these: for increase in inhibitory activity upon guanidinylation relative to the parent compound: fluorescence anisotropy IC50, guanidinylated vs parent. From the text: In a modification of the above assay, the solid support aspect of the above embodiment is removed. The biophysical characteristics of potential inhibitory test compounds can be detected by fluorescence anisotropy as depicted in FIG. 5. The RRE-bound fluorescent peptide has a slower Brownian tumbling motion relative to the free peptide in solution. Upon displacement of the fluorescently labeled Rev from the RRE by a competing inhibitor, a decrease in the anisotropy value is observed. The displacement of the labeled-Rev can be followed by monitoring the anisotropy at the emission wavelength of the Rev34-50-bound fluorophore.
The HIV-1 Rev-RRE interaction was used to examine the impact of guanidinylation upon RNA binding, and to probe the potential antiviral activity of these compounds. The binding of Rev to the RRE (Rev response element) is responsible for the export of unspliced and singly spliced HIV genomic RNA out of the host nucleus. This essential protein-RNA interaction remains an important, and nonutilized, therapeutic target. The high-affinity Rev binding site on the RRE has been localized to the purine-rich bulge. The binding of Rev to the RRE is governed by the arginine-rich fragment, Rev34-50. Key guanidinium groups make direct contacts with the RNA platform and are essential for the specific binding of Rev to the RRE. Fluorescence anisotropy has been employed to determine the affinity of the new derivatives to the RRE in solution. The RRE-bound fluorescent Rev peptide has a slower Brownian tumbling motion relative to the free peptide. Upon displacement of the fluorescein-labeled Rev peptide from the RRE by an inhibitor, a decrease in the anisotropy value is observed. Table 4 (column a) compares the IC50 values of the guanidinoglycosides to the aminoglycosides. Guanidinylation of kanamycin A, kanamycin B, and tobramycin results in a greater than 10-fold increase in inhibitory activity relative to the parent compounds. A 5-fold increase in activity is observed upon guanidinylation of neomycin B and paromomycin.
Background: In fluorescence polarisation assays a small probe gives low polarisation when free and higher when bound to something large.

The target is the same in assay [2]. Put plainly: Solid-phase assay: displacement of fluorescent Rev peptide from immobilized RRE. The class given is binding. The conditions noted are these: for (e) Ratio (c)/(b): IC50 with polyA-polyU divided by IC50 without competitor, proportional to RRE selectivity; for change of ratio (c)/(b) upon guanidinylation: decrease = more selective for the RRE than amino precursor. From the text:
To facilitate the discovery of active guanidinoglycosides an assay system using HIV-1 response elements can be used. For example, RRE-specific binders as well as TAR specific binders can be identified using the methods of the present invention. The present invention provides a rapid screening assay and method depicted in FIG. 4. The Rev-RRE assay relies on the release of a fluorescently tagged Rev fragment from an immobilized RRE-Rev complex and can be performed under various stringency levels. The assay can be conducted in the presence of competing RNA molecules, other potential cellular targets, or cellular extracts. Only high affinity ligands can effectively compete with the bound Rev34-50 peptide (Kd is approximately 1 nM), thus releasing the highly fluorescent molecules into solution. Non-selective binders will be scavenged by competitor molecules present in solution.
In one embodiment, the present invention provides an assay for identifying a test compound which binds to RRE. The assay includes an immobilized RRE, a detectably labeled Rev, and a test compound. A test compound that liberates the labeled Rev due to competitive binding to the RRE results in an increase in the labeled Rev in the supernatant of the assay. Accordingly, following incubation of immobilized RRE, a labeled Rev, and a test compound, the supernatant is measured and the amount of label in the supernatant is determined. The amount of label in the supernatant is indicative of the degree or ability of the test compound to bind to the RRE or REV polypeptide. By comparing the amount of label in the supernatant with the amount in a control or standard sample, one can identify a test compound which effectively competes with the Rev for binding to RRE. […] In the depicted embodiment of FIG. 4 the ternary complex containing a fluorescently tagged Rev peptide bound to an immobilized RRE is incubated with the test compound (e.g., a potential competitor, binding agent or inhibitor)under conditions and in the presence of competing RNA molecules n a microcentrifuge filter tube. After incubation, the mixture is filtered and the filtrate is illuminated. In the presence of a strong and selective RRE binder, the fluorescently labeled peptide will be released from the beads into solution and the filtrate will become fluorescent.
The basic principle of the assay systems used to identify compounds that inhibit binding of Rev to RRE or compounds that interact with RRE involves preparing a reaction mixture containing the target (e.g., RRE) and the binding partner (e.g., labeled-Rev) under conditions and for a time sufficient to allow the two to interact and bind, thus form a complex. In order to test a compound for inhibitory activity, the reaction mixture is prepared in the presence and absence of the test compound. The test compound can be initially included in the reaction mixture, or can be added at a time subsequent to the addition of the RRE and its binding partner, Rev. Control reaction mixtures are incubated without the test compound or with a placebo. The presence of labeled-Rev that is not bound to RRE over that amount found in a control or standard sample is indicative of a test compound that competes with Rev for binding to RRE.
A novel solid-phase assembly was used to evaluate the RNA specificity of the new derivatives. This assay relies on the displacement of a fluorescent Rev peptide from a solid-phase immobilized RRE and can be performed in the presence of competing nucleic acids. Table 4 (columns b-d) summarizes the IC50 values determined by this method. By comparing IC50 values measured in the absence of any competitors to the values measured in the presence of DNA or RNA, a quantitative measure for the relative selectivity of each ligand can be made. Aminoglycosides have a substantial affinity to poly A-poly U duplex RNA (compare column b to c, Table 4). […] For neomycin, this ratio increases upon guanidinylation, indicating a lower RRE selectivity. […]

For the next assay, the system named is HIV-1. Put plainly: Inhibition of viral replication in HIV-1-infected CD4+ HeLa cells (plaque formation). The format is cell-based. On the procedure:
By converting aminoglycosides into guanidinoglycosides the biological activities of these glycosides were dramatically affected. Neomycin B was reported to be an in vivo and in vitro inhibitor of Rev-RRE binding, as well as an effective inhibitor of HIV-1 replication in vivo. The ability of guanidinoneomycin B and guanidinotobramycin to inhibit viral replication in HIV-1-infected CD4+ HeLa cells was measured and compared to the antiviral activities of neomycin B and tobramycin (FIG. 6). As evidenced by the dose-dependent decrease in plaque formation, the guanidinoglycosides inhibit HIV replication with activities approximately 100 times higher than their amino precursors (FIG. 6). The antiviral activity of the guanidinoglycosides may be related to their ability to bind the RRE with high affinity and specificity, thus preventing the HIV-1 Rev-RRE interaction and viral replication.

The mark [3] stands for this setting: Fluorescence Anisotropy (Table 4), read-out: IC50 (a) Anisotrophy.
Setting [4] is: Fluorescence Anisotropy, amino form of the glycoside (Table 3), read-out: IC50 (uM) amino form.
Where [5] appears, read: 15 ug/mL plasmid DNA (pGEM), read-out: IC50 (d) Solid-Phase + DNA.
The mark [6] stands for this setting: 15 ug/mL polyA-polyU duplex RNA, read-out: IC50 (c) Solid-Phase + poly A polyU.
Where [7] appears, read: Solid-phase, no competitor (Table 4), read-out: IC50 (b) Solid-Phase.
The mark [8] stands for this setting: Fluorescence Anisotropy, guanidino form of the glycoside (Table 3), read-out: IC50 (uM) guandino form.

One may read the IC50 as the concentration that gives 50% inhibition.

In the case of `NC[C@@H]1O[C@H](O[C@H]2[C@@H](O)[C@H](O[C@@H]3[C@@H](O)[C@H](N)C[C@H](N)[C@H]3O[C@H]3O[C@H](CN)[C@@H](O)[C@H](O)[C@H]3N)O[C@@H]2CO)[C@H](N)[C@@H](O)[C@@H]1O` [Neomycin B, Neomycin], the half-maximal inhibitory concentration (IC50) is 6 µM in assay [1] (setting [3]); 1 µM in assay [1] (setting [4]); 8 µM in assay [2] (setting [5]); 16 µM in assay [2] (setting [6]); 6 µM in assay [2] (setting [7]). Also, the “increase in inhibitory activity upon guanidinylation relative to the parent compound” value in assay [1] was 5 fold. For the same compound, the “(e) Ratio (c)/(b)” value in assay [2] worked out at 2.7. Further, the “change of ratio (c)/(b) upon guanidinylation” value (from here on “change of ratio”) in assay [2] is “increases”.

In the case of `NC[C@H]1O[C@H](O[C@H]2[C@H](O)[C@@H](O[C@H]3O[C@H](CO)[C@@H](O)[C@H](N)[C@H]3O)[C@H](N)C[C@@H]2N)[C@H](O)[C@@H](O)[C@@H]1O` [KanamycinA, Kanamycin A], the IC50 in assay [1] (setting [3]) was 750 µM; in assay [1] (setting [4]), 100 µM; in assay [2] (setting [5]), 750 µM; in assay [2] (setting [6]), 1300 µM; in assay [2] (setting [7]), 700 µM. For the same compound, in assay [2], the “(e) Ratio (c)/(b)” value was determined as 1.9. For the same compound, the “change of ratio” value in assay [2] is “decreases”.

As to `N=C(N)NCC1OC(OC2C(NC(=N)N)CC(NC(=N)N)C(OC3OC(CO)C(O)C(NC(=N)N)C3O)C2O)C(NC(=N)N)C(O)C1O` (centres unmarked) [guanidino-kanamycinB, Guanidino Kanamycin B], the IC50 in assay [1] (setting [3]) worked out at 3.5 µM; in assay [2] (setting [5]), 3.5 µM; in assay [2] (setting [6]), 4.7 µM; in assay [2] (setting [7]), 3 µM. Also, the “(e) Ratio (c)/(b)” value in assay [2] is reported as 1.6.

For `NC[C@H]1O[C@H](O[C@H]2[C@H](O)[C@@H](O[C@H]3O[C@H](CO)[C@@H](O)[C@H](N)[C@H]3O)[C@H](N)C[C@@H]2N)[C@H](N)C[C@@H]1O` [Tobramycin], the half-inhibitory concentration (IC50) in assay [1] (setting [3]) is 44 µM; in assay [1] (setting [4]), 10 µM; in assay [2] (setting [5]) it was 50 µM; in assay [2] (setting [6]), 140 µM; in assay [2] (Solid Phase Assay, competing DNA (Table 2), read-out: IC50 with DNA), 55 µM; in assay [2] (Solid Phase Assay, competing tRNA (Table 2), read-out: IC50 with tRNA), 1.1 µM. Moreover, the concentration for half-maximal inhibition (IC50) in assay [2] (Solid Phase Assay, no competitor (Table 2), read-out: IC50) was found to be 50 µM; in assay [2] (setting [7]), 45 µM. Also, the “(e) Ratio (c)/(b)” value in assay [2] was found to be 3.1. For the same compound, the “change of ratio” value in assay [2] is “decreases”. The “activity in the presence of competing nucleic acids” value in assay [2] (solid phase assay, competing DNA / tRNA) was “significantly lower activity in the presence of tRNA”.

On to `NC(N)=NC[C@@H]1O[C@H](O[C@H]2[C@H](O)[C@@H](O[C@H]3O[C@@H](CO)[C@H](O)[C@@H](N=C(N)N)[C@@H]3O)[C@H](N=C(N)N)C[C@@H]2N=C(N)N)[C@@H](O)[C@H](O)[C@H]1O` [guanidino-kanamycinA, Guanidino Kanamycin A], for which the IC50 came out at 65 µM in assay [1] (setting [3]); 8 µM in assay [1] (setting [8]); 55 µM in assay [2] (setting [5]); 60 µM in assay [2] (setting [6]); 50 µM in assay [2] (setting [7]). Besides, in assay [2], the “(e) Ratio (c)/(b)” value is given as 1.2.

In the case of `N=C(N)NC[C@@H]1O[C@H](O[C@H]2[C@@H](O)[C@H](O[C@@H]3[C@@H](O)[C@H](NC(=N)N)C[C@H](NC(=N)N)[C@H]3O[C@H]3O[C@H](CNC(=N)N)[C@@H](O)[C@H](O)[C@H]3NC(=N)N)O[C@@H]2CO)[C@H](NC(=N)N)[C@@H](O)[C@@H]1O` [guanidino-neomycin B, Guanidino Neomycin], the “inhibition of HIV replication, activity relative to parent aminoglycoside” value in the assay on HIV-1 is “approximately 100 times”. Further, the half-maximal inhibitory concentration (IC50) in assay [1] (setting [3]) was determined as 1.3 µM; in assay [1] (setting [8]), 0.2 µM; in assay [2] (setting [5]) it was 0.9 µM; in assay [2] (setting [6]), 4.5 µM; in assay [2] (setting [7]), 0.8 µM. The “(e) Ratio (c)/(b)” value in assay [2] is on record as 5.6.

In the case of `NC[C@H]1O[C@H](O[C@H]2[C@H](O)[C@@H](O[C@H]3O[C@H](CO)[C@@H](O)[C@H](N)[C@H]3O)[C@H](N)C[C@@H]2N)[C@H](N)[C@@H](O)[C@@H]1O` [KanamycinB, Kanamycin B], the IC50 in assay [1] (setting [3]) is 80 µM; in assay [2] (setting [5]), 90 µM; in assay [2] (setting [6]) it was 160 µM; in assay [2] (setting [7]), 80 µM. Also, the “(e) Ratio (c)/(b)” value in assay [2] was found to be 2.0. The “change of ratio” value in assay [2] is “decreases”.

For the compound `NC[C@@H]1O[C@H](O[C@H]2[C@@H](O)[C@H](O[C@@H]3[C@@H](O)[C@H](N)C[C@H](N)[C@H]3O[C@H]3O[C@H](CO)[C@@H](O)[C@H](O)[C@H]3N)O[C@@H]2CO)[C@H](N)[C@@H](O)[C@@H]1O` [Paromomycin], the IC50 in assay [1] (setting [3]) was 65 µM; in assay [2] (setting [5]), 60 µM; in assay [2] (setting [6]), 110 µM; in assay [2] (setting [7]), 55 µM. Further, in assay [1], the “increase in inhibitory activity upon guanidinylation relative to the parent compound” value came out at 5 fold. Besides, the “(e) Ratio (c)/(b)” value in assay [2] turned out to be 2.0. In assay [2], the “change of ratio” value is on record as “decreases”.

In the case of `N=C(N)NCC1OC(OC2C(CO)OC(OC3C(O)C(NC(=N)N)CC(NC(=N)N)C3OC3OC(CO)C(O)C(O)C3NC(=N)N)C2O)C(NC(=N)N)C(O)C1O` (centres unmarked) [guanidino-paromomycin, Guanidino Paromomycin], the IC50 in assay [1] (setting [3]) turned out to be 18 µM; in assay [2] (setting [5]) it was 16 µM; in assay [2] (setting [6]) it was 20 µM; in assay [2] (setting [7]) it was 14 µM. In addition, the “(e) Ratio (c)/(b)” value in assay [2] stood at 1.4.

The values are drawn from patent publication US6833445B2, “Guanidinylation, guanidinoglycosides, uses, and methods of assaying their activity” (The Regents of the University of California, priority 2000, dated 2004).
